From ChEMBL document CHEMBL5236570, “Substitution of a triazole for the central olefin in biologically active stilbenes” (2022) come the findings set out here.

SMILES strings stand for the structures.

As a reminder, the GI50 is the concentration giving 50% growth inhibition. A high value points to less potent growth inhibition.

The subject of one assay is Panel NCI-60 (60 carcinoma cell lines). Nature of the assay: Growth inhibition of human Panel NCI-60 cells. In kind it is functional.
Consider `COc1cc(-n2cc(-c3cc(O)c(C/C=C(\C)CCC=C(C)C)c(O)c3)nn2)cc2c1O[C@]1(C)CC[C@@H](O)C(C)(C)[C@H]1C2`, for which the GI50 came to 710 nM.

As to `COc1cc(CCc2cc(O)c(C/C=C(\C)CC/C=C(\C)CO)c(O)c2)cc2c1O[C@]1(C)CC[C@@H](O)C(C)(C)[C@H]1C2`, it took 4900 nM to inhibit growth by half (GI50).

The compound `COc1cc(/C=C/c2cc(O)c(C/C=C(\C)CCC=C(C)C)c(O)c2)cc2c1O[C@]1(C)CC[C@@H](O)C(C)(C)[C@H]1C2` [3-DEOXYSCHWEINFURTHIN B] registered a GI50 of 620 nM. This GI50 is about 7.9-fold lower than that of the compound before.

The compound `CC(C)=CCC/C(C)=C/Cc1c(O)cc(/C=C/c2cc(O)c3c(c2)C[C@@H]2C(C)(C)[C@H](O)[C@H](O)C[C@@]2(C)O3)cc1O` [SCHWEINFURTHIN A] yielded a GI50 of 360 nM.

In a further assay the test system is SF-295. The assay can be described thus: Growth inhibition of human SF-295 cells. In kind it is functional.
With `COc1cc(-n2cc(-c3cc(O)c(C/C=C(\C)CCC=C(C)C)c(O)c3)nn2)cc2c1O[C@]1(C)CC[C@@H](O)C(C)(C)[C@H]1C2`, the GI50 worked out at 35 nM.

The compound `COc1cc(CCc2cc(O)c(C/C=C(\C)CC/C=C(\C)CO)c(O)c2)cc2c1O[C@]1(C)CC[C@@H](O)C(C)(C)[C@H]1C2` displayed a GI50 of 2500 nM.

As for `COc1cc(/C=C/c2cc(O)c(C/C=C(\C)CCC=C(C)C)c(O)c2)cc2c1O[C@]1(C)CC[C@@H](O)C(C)(C)[C@H]1C2` [3-DEOXYSCHWEINFURTHIN B], the GI50 worked out at 62 nM.

Take `CC(C)=CCC/C(C)=C/Cc1c(O)cc(/C=C/c2cc(O)c3c(c2)C[C@@H]2C(C)(C)[C@H](O)[C@H](O)C[C@@]2(C)O3)cc1O` [SCHWEINFURTHIN A]: the GI50 was determined as 11 nM. This GI50 lies about 5.6-fold lower than the previous one.
